# Results published in PMC4450297, “Screening Active Compounds from Garcinia Species Native to China Reveals Novel Compounds Targeting the STAT/JAK Signaling Pathway” (BioMed Research International, 2015).
# Columns and labels:
# Assay in all cases: Cell panel screen (CellTiter-Glo)
# Type in all cases: cell-based, human
# [1] = system: NCI-H1770; details: NCI-H1770 (Lung), 20 micromolar, 72 hrs
# Description: (§1) All cells were obtained from the cell bank of the American Type Culture Collection (ATCC) and cultured in the supplier's recommended media supplemented with 10% FBS. The cell panel screen was measured using the CellTiter-Glo assay (Promega, Madison, WI) following a standard protocol. Briefly, cancer cells were seeded in 96-well plates and cultured overnight at 37°C with or without 5% CO2 in an incubator. Each compound was dissolved with limited DMSO and diluted to a certain concentration with culture medium and then added to the corresponding well of the cell plate. The final concentration of compound was 20 μM. The control cells (without treatment) received the same amount of DMSO and were incubated under the same conditions. After 72 h cultivation, 100 μL of the CellTiter-Glo reagent was added directly to each well for 10-minute incubation. The plate was then read on a FlexStation 3 microplate luminometer (Molecular Devices, USA) to monitor the luminescence signal generated by the luciferase-catalyzed reaction of luciferin and ATP. The percent of growth inhibition was calculated using the following formula: (untreated cells − treated cells)/(untreated cells − background without cells) ∗ 100.
# [2] = system: NCI-H1623; details: NCI-H1623 (Lung), 20 micromolar, 72 hrs
# Description: as §1
# [3] = system: A704; details: A704 (Kidney), 20 micromolar, 72 hrs
# Description: as §1
# [4] = system: A498; details: A498 (listed under Lung), 20 micromolar, 72 hrs
# Description: as §1
# [5] = system: C3A; details: C3A (Liver), 20 micromolar, 72 hrs
# Description: as §1
# [6] = system: CCF-STTG1; details: CCF-STTG1 (Brain), 20 micromolar, 72 hrs
# Description: as §1
# [7] = system: M059J; details: M059J (Brain), 20 micromolar, 72 hrs
# Description: as §1
# [8] = system: HCC1395; details: HCC1395 (Breast), 20 micromolar, 72 hrs
# Description: as §1
# [9] = system: MSTO-211-H; details: MSTO-211-H (Lung), 20 micromolar, 72 hrs
# Description: as §1
# [10] = system: HEC-1-A; details: HEC-1-A (Uterus), 20 micromolar, 72 hrs
# Description: as §1
# [11] = system: Colo 205; details: Colo 205, 20 micromolar, 72 hrs
# Description: as §1
# [12] = system: ZR-75-30; details: ZR-75-30 (Breast), 20 micromolar, 72 hrs
# Description: as §1
# [13] = system: CW-2; details: CW-2 (Colon), 20 micromolar, 72 hrs
# Description: as §1
# [14] = system: T47D; details: T47D (Breast), 20 micromolar, 72 hrs
# Description: as §1
# [15] = system: Bel-7402; details: Bel-7402 (Liver), 20 micromolar, 72 hrs
# Description: as §1
# [16] = system: Panc 03.27; details: Panc 03.27 (Pancreas), 20 micromolar, 72 hrs
# Description: as §1
# [17] = system: HPAF-II; details: HPAF-II (Pancreas), 20 micromolar, 72 hrs
# Description: as §1
# [18] = system: BT-549; details: BT-549 (Breast), 20 micromolar, 72 hrs
# Description: as §1
# [19] = system: RL95; details: RL95 (Uterus), 20 micromolar, 72 hrs
# Description: as §1
# [20] = system: HCC1569; details: HCC1569 (Breast), 20 micromolar, 72 hrs
# Description: as §1
# [21] = system: ChaGo-K-1; details: ChaGo-K-1 (Lung), 20 micromolar, 72 hrs
# Description: as §1
# [22] = system: HCC1937; details: HCC1937 (Breast), 20 micromolar, 72 hrs
# Description: as §1
# [23] = system: HCC1599; details: HCC1599 (Breast), 20 micromolar, 72 hrs
# Description: as §1
# [24] = system: T98G; details: T98G (Brain), 20 micromolar, 72 hrs
# Description: as §1
# [25] = system: J82; details: J82 (Urinary bladder), 20 micromolar, 72 hrs
# Description: as §1
# [26] = system: NCI-H524; details: NCI-H524 (Lung), 20 micromolar, 72 hrs
# Description: as §1
# [27] = system: NCI-H1694; details: NCI-H1694 (Lung), 20 micromolar, 72 hrs
# Description: as §1
# [28] = system: NCI-H28; details: NCI-H28 (Lung), 20 micromolar, 72 hrs
# Description: as §1
# [29] = system: SW13; details: SW13 (Adrenal gland), 20 micromolar, 72 hrs
# Description: as §1
# [30] = system: NCI-H2405; details: NCI-H2405 (Lung), 20 micromolar, 72 hrs
# Description: as §1
# [31] = system: C8166; details: C8166 (Leukemia), 20 micromolar, 72 hrs
# Description: as §1
# [32] = system: NCI-H2347; details: NCI-H2347 (Lung), 20 micromolar, 72 hrs
# Description: as §1
# [33] = system: HGC-27; details: HGC-27 (Stomach), 20 micromolar, 72 hrs
# Description: as §1
# [34] = system: BT-474; details: BT-474 (Breast), 20 micromolar, 72 hrs
# Description: as §1
# [35] = system: HT-1197; details: HT-1197 (Urinary bladder), 20 micromolar, 72 hrs
# Description: as §1
# [36] = system: TCCSUP; details: TCCSUP (Urinary bladder), 20 micromolar, 72 hrs
# Description: as §1
SMILES,Percent Inhibition [1] [%],Percent Inhibition [2] [%],Percent Inhibition [3] [%],Percent Inhibition [4] [%],Percent Inhibition [5] [%],Percent Inhibition [6] [%],Percent Inhibition [7] [%],Percent Inhibition [8] [%],Percent Inhibition [9] [%],Percent Inhibition [10] [%],Percent Inhibition [11] [%],Percent Inhibition [12] [%],Percent Inhibition [13] [%],Percent Inhibition [14] [%],Percent Inhibition [15] [%],Percent Inhibition [16] [%],Percent Inhibition [17] [%],Percent Inhibition [18] [%],Percent Inhibition [19] [%],Percent Inhibition [20] [%],other results
CC(C)=CCC/C(C)=C/Cc1c(O)c(CC=C(C)C)c2c(c1O)C(=O)C1=C[C@@H]3C[C@H]4C(C)(C)O[C@@](C/C=C(/C)C(=O)O)(C3=O)[C@@]14O2 [GB16],100,99,99,100,99,99,99,99,100,99,99,100,99,99,99,99,98,99,99,99,Percent Inhibition [21]: 99%; Percent Inhibition [22]: 100%; Percent Inhibition [23]: 100%; Percent Inhibition [24]: 99%; Percent Inhibition [25]: 99%; Percent Inhibition [26]: 98%; Percent Inhibition [27]: 100%; Percent Inhibition [28]: 99%; Percent Inhibition [29]: 99%; Percent Inhibition [30]: 99%; Percent Inhibition [31]: 100%; Percent Inhibition [32]: 98%; Percent Inhibition [33]: 100%; Percent Inhibition [34]: 99%; Percent Inhibition [35]: 99%; Percent Inhibition [36]: 100%
CCOC(=O)C1OC(Oc2cc(O)c3c(c2)OC(c2ccc(O)c(O)c2)CC3=O)C(O)C(O)C1O (stereo not drawn) [gly-3],-10,8,-17,-4,-4,-4,1,9,-3,-19,-6,13,4,-4,-5,2,-7,-14,6,-8,Percent Inhibition [21]: -13%; Percent Inhibition [22]: 3%; Percent Inhibition [23]: -18%; Percent Inhibition [24]: -3%; Percent Inhibition [25]: -7%; Percent Inhibition [26]: -25%; Percent Inhibition [27]: 1%; Percent Inhibition [28]: -18%; Percent Inhibition [29]: -5%; Percent Inhibition [30]: -3%; Percent Inhibition [31]: -1%; Percent Inhibition [32]: 4%; Percent Inhibition [33]: -11%; Percent Inhibition [34]: -24%; Percent Inhibition [35]: 11%; Percent Inhibition [36]: -1%
"CC(C)=CCc1c(O)cc2oc3cc(O)c(O)c(CCC(C)(C)O)c3c(=O)c2c1O [bn-16, Garcinone C]",87,67,62,65,43,65,78,94,93,61,97,94,95,62,91,86,75,74,69,81,Percent Inhibition [21]: 91%; Percent Inhibition [22]: 80%; Percent Inhibition [23]: 94%; Percent Inhibition [24]: 91%; Percent Inhibition [25]: 85%; Percent Inhibition [26]: 98%; Percent Inhibition [27]: 99%; Percent Inhibition [28]: 71%; Percent Inhibition [29]: 96%; Percent Inhibition [30]: 73%; Percent Inhibition [31]: 88%; Percent Inhibition [32]: 73%; Percent Inhibition [33]: 77%; Percent Inhibition [34]: 83%; Percent Inhibition [35]: 85%; Percent Inhibition [36]: 88%
CC1(C)C=Cc2c(cc(O)c3c(=O)c4cc5c(c(O)c4oc23)OC(C)(C)C=C5)O1 [Go-16],25,33,17,12,22,22,31,68,34,11,4,47,17,20,15,20,15,-5,-8,11,Percent Inhibition [21]: 9%; Percent Inhibition [22]: 25%; Percent Inhibition [23]: 41%; Percent Inhibition [24]: 29%; Percent Inhibition [25]: 23%; Percent Inhibition [26]: -35%; Percent Inhibition [27]: 5%; Percent Inhibition [28]: 9%; Percent Inhibition [29]: 6%; Percent Inhibition [30]: 27%; Percent Inhibition [31]: 13%; Percent Inhibition [32]: -8%; Percent Inhibition [33]: 28%; Percent Inhibition [34]: -6%; Percent Inhibition [35]: 35%; Percent Inhibition [36]: 44%
